Key:
[1] = system: skin barrier (forearm skin of the subjects); experiment: In vivo determination of the transepidermal water loss (TEWL) following damage to the skin barrier by SDS treatment; parameters: species or system human; conditions: N=5; for TEWL after SDS stress: then 2% SDS, occlusion 24 h; for TEWL after ectoin treatment for 1 week: 2 mg/cm^2 twice daily, forearm; for TEWL before treatment: baseline, 22° C., 60% humidity
Procedure: Using the skincare creams (0/W) comprising ectoin described in. Example 4, an in vivo determination of the transepidermal water loss (TEWL) following damage to the skin barrier by SDS treatment is carried out. Firstly, the skin of the subjects (N=5) on the forearm is treated for one week twice daily with the O/W emulsion (2 mg/cm^2) comprising 2% and 5% of ectoin and an emulsion without ectoin (placebo). In order to increase the TEWL artificially as a result of damage to the horny barrier, the skin is then treated with 80 μl of sodium dodecyl sulfate (SDS; 2% in water) in an aluminum chamber with occlusion for 24 h. The TEWL determination is carried out in a climatically controlled room at 22° C. and an atmospheric humidity of 60% using a TM210 TEWA meter. […] The values for FIG. 1 are given in Tab. 1.

human erythrocytes = experiment: RBC test: membrane-stabilizing action on ectoin pretreated erythrocytes against SDS; assay type: cell-based
Procedure: To determine the cell membrane- and protein-damaging action of surfactants, the RBC Test can, for example, be used. For this, the erythrocytes are incubated e.g. with sodium dodecyl sulfate (SDS), for example for a period of 10 minutes. SDS destabilizes the membrane of untreated cells such that the cells are partially lysed and their contents such as the hemoglobin are released. The hemoglobin released during cell-wall damage serves as an indicator for the spectrophotometric determination of the membrane damage by SDS. By reference to the hemoglobin released, it is possible to determine the number of destroyed erythrocytes.
Using an aqueous ectoin solution buffered in PBS buffer (22.2 mmol/l of disodium hydrogenphosphate, 5.6 mmol/l of potassium dihydrogenphosphate, 123.3 mmol/l of sodium chloride and 10 mmol/l of glucose), a determination of the membrane-stabilizing action of ectoin pretreated human erythrocytes against SDS is carried out. The RBC test is used here. The percentage membrane stabilization of cells pretreated with ectoin is determined.
(§1) Human erythrocytes (2×10^8 cells/ml) are treated for 1 hour with 0%, 0.1%, 0.5%, 1% and 5% of ectoin. The cells are then stressed for 10 min with 0 to 0.04% SDS solution. Then, spectrophotometry is used to determine how many cells have been lysed by reference to the free hemoglobin content. […] The experiment is carried out N=5 times.
as §1, with “In addition, human” for “Human”, “treated with 1% of ectoin” for “treated”, “0 (control), 6, 18” for “1 hour with 0%, 0.1%, 0.5%, 1%”, “24 hours.” for “5% of ectoin.”, “0.04% of” for “0.04%”

CC1=N[C@H](C(=O)O)CCN1 [ectoin, (S)-1,4,5,6-tetrahydro-2-methyl-4-pyrimidecarboxylic acid]
TEWL after SDS stress ([1]; O/W emulsion with 2% of ectoin for 1 week): 14.2 g/m^2/h | TEWL after ectoin treatment for 1 week ([1]; O/W emulsion with 2% of ectoin): 5.6 g/m^2/h | TEWL after SDS stress ([1]; O/W emulsion with 5% of ectoin for 1 week): 10.8 g/m^2/h | TEWL after ectoin treatment for 1 week ([1]; O/W emulsion with 5% of ectoin): 5.6 g/m^2/h | TEWL before treatment ([1]; test area for the O/W emulsion with 2% of ectoin): 5.6 g/m^2/h | TEWL before treatment ([1]; test area for the O/W emulsion with 5% of ectoin): 5.1 g/m^2/h | dependence of the protective effect on ectoin concentration (human erythrocytes; 0.1%, 0.5%, 1%, 5% of ectoin, 1 hour, FIG. 3): The higher the ectoin concentration, the greater the protective effect | dependence of the protective effect on duration of pretreatment (human erythrocytes; 1% of ectoin for 6, 18, 24 hours, FIG. 4): The longer the cells are pretreated with ectoin, the greater the protective effect | protection of erythrocytes against membrane damage by SDS (human erythrocytes; 1 hour pretreatment with 0.1-5% of ectoin, 10 min 0 to 0.04% SDS, FIG. 3): protects the cells against damage by SDS
